“Also recorded” adds a separate entry of the source.
molecular target: protein kinase; assay: HTS ATP-utilizing enzyme assay, off-chip mobility-shift format (Caliper HTS 250); format: biochemical, human; settings: kinase(s) for which the compound exhibits protein kinase inhibitory activity; test compound 10 μM; active = greater than three-sigma from the mean activity of inactive compounds
Procedure, shortened: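 Kinase reactions ran 2.5 h at 20 to 22 °C with test compound at 10 μM, in a HEPES pH 7.5 master buffer containing Triton X-100 and BSA. Peptide substrate and phosphorylated product separated by mobility shift; inhibition normalized to DMSO (0%) and EDTA (100%) controls, with three-sigma thresholds for hits.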

| SMILES | Kinase |
| --- | --- |
| COc1ccccc1-n1c(S)nnc1-c1cccnc1 [4-(2-methoxyphenyl)-5-(pyridin-3-yl)-4H-1,2,4-triazole-3-thiol] | AURORA-A |
| Sc1nnc(C2CCCCC2)n1-c1cccc(Cl)c1 [4-(3-chlorophenyl)-5-cyclohexyl-4H-1,2,4-triazole-3-thiol] | AURORA-A |
| Oc1ccc(-c2nnc(S)n2-c2cccc(Cl)c2)cc1 [4-(4-(3-chlorophenyl)-5-mercapto-4H-1,2,4-triazol-3-yl)phenol] | CDK5 and CDK2-cyclinA and CDK2-cyclinE |
| Nc1c(Cl)cc(-n2c(S)nnc2-c2ccccc2)cc1Cl [4-(4-amino-3,5-dichlorophenyl)-5-phenyl-4H-1,2,4-triazole-3-thiol] | GSK3-β; also recorded: GSK3-α; also recorded: CDK2-cyclinE |
| COc1ccc(-n2c(S)nnc2-c2cccnc2)cc1 [4-(4-methoxyphenyl)-5-(pyridin-3-yl)-4H-1,2,4-triazole-3-thiol] | ABL1 |
| COc1ccc(-n2c(C)nnc2S)cc1 [4-(4-methoxyphenyl)-5-methyl-4H-1,2,4-triazole-3-thiol] | AURORA-A |
| COc1ccc(-n2c(S)nnc2-c2ccc(O)cc2)cc1 [4-(5-mercapto-4-(4-methoxyphenyl)-4H-1,2,4-triazol-3-yl)phenol] | CDK5 and GSK3-β and GSK3-α |
| Cn1c(S)nnc1-c1ccc(O)cc1 [4-(5-mercapto-4-methyl-4H-1,2,4-triazol-3-yl)phenol] | CDK5 and CDK2-cyclinA and CDK2-cyclinE |

same assay, conditions: test compound 10 μM; active = activity greater than three-sigma from the mean of the predominately inactive population for that enzyme

| SMILES | protein kinase against which the compound exhibits inhibitory activity (Table 3) |
| --- | --- |
| Clc1ccc(Cn2c(Cc3ccccc3)nnc2SCc2ccccc2)cc1Cl [3-benzyl-5-(benzylthio)-4-(3,4-dichlorobenzyl)-4H-1,2,4-triazole] | AURORA-A |
| Cc1ccc(CCn2c(Cc3ccccc3)nnc2SCc2ccccc2)cc1 [3-benzyl-5-(benzylthio)-4-(4-methylphenethyl)-4H-1,2,4-triazole] | FLT-3 and PRAK and AURORA-A |
| c1ccc(CCn2c(Cc3ccccc3)nnc2SCc2ccccc2)cc1 [3-benzyl-5-(benzylthio)-4-phenethyl-4H-1,2,4-triazole] | AURORA-A |
| CCc1nnc(SCC=C(C)C)n1CCc1ccccc1 [3-ethyl-5-(3-methylbut-2-enylthio)-4-phenethyl-4H-1,2,4-triazole] | GSK3-α |
| Cc1nnc(SCc2cccc3ccccc23)[nH]1 [3-methyl-5-(naphthalen-1-ylmethylthio)-4H-1,2,4-triazole] | AURORA-A; also recorded: DYRK2; also recorded: GSK3-α |
| Cc1nnc(SCCc2ccccc2)[nH]1 [3-methyl-5-(phenethylthio)-4H-1,2,4-triazole] | AURORA-A; also recorded: GSK3-β |
| c1ccc(-c2nnc(SCCN3CCCC3)[nH]2)cc1 [3-phenyl-5-(2-(pyrrolidin-1-yl)ethylthio)-4H-1,2,4-triazole] | GSK3-α; also recorded: GSK3-β; also recorded: CHEK2 |
| Cc1cccc(-c2nnc(SCCN3CCOCC3)n2C)c1 [4-(2-(4-methyl-5-m-tolyl-4H-1,2,4-triazol-3-ylthio)ethyl)morpholine] | AKT1 |
| Clc1ccc(-c2nnc(SCCN3CCOCC3)[nH]2)cc1Cl [4-(2-(5-(3,4-dichlorophenyl)-4H-1,2,4-triazol-3-ylthio)ethyl)morpholine] | AURORA-A; also recorded: GSK3-α; also recorded: GSK3-β |
| COc1ccc(-c2nnc(SCCN3CCOCC3)[nH]2)cc1 [4-(2-(5-(4-methoxyphenyl)-4H-1,2,4-triazol-3-ylthio)ethyl)morpholine] | GSK3-α; also recorded: AURORA-A; also recorded: GSK3-β |
| O=[N+]([O-])c1ccc(-c2nnc(SCCN3CCOCC3)n2-c2ccccc2)cc1 [4-(2-(5-(4-nitrophenyl)-4-phenyl-4H-1,2,4-triazol-3-ylthio)ethyl)morpholine] | PDGFRR-α |
| O=[N+]([O-])c1ccc(-c2nnc(SCCN3CCOCC3)[nH]2)cc1 [4-(2-(5-(4-nitrophenyl)-4H-1,2,4-triazol-3-ylthio)ethyl)morpholine] | GSK3-β; also recorded: GSK3-α; also recorded: AURORA-A |
| c1csc(-c2nnc(SCCN3CCOCC3)[nH]2)c1 [4-(2-(5-(thiophen-2-yl)-4H-1,2,4-triazol-3-ylthio)ethyl)morpholine] | AURORA-A; also recorded: GSK3-β; also recorded: GSK3-α |
| Cc1cccc(-c2nnc(SCCN3CCOCC3)[nH]2)c1 [4-(2-(5-m-tolyl-4H-1,2,4-triazol-3-ylthio)ethyl)morpholine] | AURORA-A; also recorded: GSK3-β; also recorded: GSK3-α |
| COc1ccccc1-n1c(SCCCC(=O)O)nnc1-c1ccccc1 [4-(4-(2-methoxyphenyl)-5-phenyl-4H-1,2,4-triazol-3-ylthio)butanoic acid] | c-TAK1 |
| Oc1ccc(-c2nnc(SCc3ccccc3)n2Cc2ccccc2)cc1 [4-(4-benzyl-5-(benzylthio)-4H-1,2,4-triazol-3-yl)phenol] | GSK3-β and GSK3-α and LYNA |
| CCSc1nnc(-c2ccc(O)cc2)n1Cc1ccccc1 [4-(4-benzyl-5-(ethylthio)-4H-1,2,4-triazol-3-yl)phenol] | GSK3-β; also recorded: GSK3-α |
| CSc1nnc(-c2ccc(O)cc2)n1Cc1ccccc1 [4-(4-benzyl-5-(methylthio)-4H-1,2,4-triazol-3-yl)phenol] | GSK3-α; also recorded: GSK3-β |

| SMILES | protein kinase against which the compound exhibits inhibitory activity (Table 3) |
| --- | --- |
| Cn1c(SCc2ccccn2)nnc1-c1ccc(O)cc1 [4-(4-methyl-5-(pyridin-2-ylmethylthio)-4H-1,2,4-triazol-3-yl)phenol] | GSK3-β; also recorded: GSK3-α |
| CCn1c(SCc2ccccc2Br)nnc1-c1cc(-c2ccccc2)nc2ccccc12 [4-(5-(2-bromobenzylthio)-4-ethyl-4H-1,2,4-triazol-3-yl)-2-phenylquinoline] | CHEK2 |
| Cn1c(SCc2c(F)cccc2Cl)nnc1-c1ccncc1 [4-(5-(2-chloro-6-fluorobenzylthio)-4-methyl-4H-1,2,4-triazol-3-yl)pyridine] | GSK3-β; also recorded: AURORA-A |
| CCn1c(SCc2ccccc2Cl)nnc1-c1cc(-c2ccccc2)nc2ccccc12 [4-(5-(2-chlorobenzylthio)-4-ethyl-4H-1,2,4-triazol-3-yl)-2-phenylquinoline] | CHEK2 |
| Oc1ccc(-c2nnc(SCCN3CCOCC3)n2-c2ccccc2)cc1 [4-(5-(2-morpholinoethylthio)-4-phenyl-4H-1,2,4-triazol-3-yl)phenol] | GSK3-α |
| CCn1c(SCc2ccc(Cl)cc2)nnc1-c1ccc(O)cc1 [4-(5-(4-chlorobenzylthio)-4-ethyl-4H-1,2,4-triazol-3-yl)phenol] | MSK2 and GSK3-β and MSK1 |
| CCn1c(SCc2ccc(Cl)cc2)nnc1-c1ccncc1 [4-(5-(4-chlorobenzylthio)-4-ethyl-4H-1,2,4-triazol-3-yl)pyridine] | PKA and AURORA-A and MSK2 |
| Cn1c(SCc2ccc(Cl)cc2)nnc1-c1ccncc1 [4-(5-(4-chlorobenzylthio)-4-methyl-4H-1,2,4-triazol-3-yl)pyridine] | AURORA-A and MSK1 |
| Clc1ccc(CSc2nnc(-c3ccncc3)n2-c2ccccc2)cc1 [4-(5-(4-chlorobenzylthio)-4-phenyl-4H-1,2,4-triazol-3-yl)pyridine] | AURORA-A and PKA and MSK1 |
| Cc1ccc(CSc2nnc(-c3ccncc3)n2-c2ccccc2)cc1 [4-(5-(4-methylbenzylthio)-4-phenyl-4H-1,2,4-triazol-3-yl)pyridine] | AURORA-A |
| CCn1c(SCc2ccc(C(C)(C)C)cc2)nnc1-c1ccncc1 [4-(5-(4-tert-butylbenzylthio)-4-ethyl-4H-1,2,4-triazol-3-yl)pyridine] | MAPKAPK-2 |
| Clc1cccc(-n2c(SCc3ccccc3)nnc2-c2ccncc2)c1 [4-(5-(benzylthio)-4-(3-chlorophenyl)-4H-1,2,4-triazol-3-yl)pyridine] | GSK3-β and AURORA-A and CDK1 |
| Oc1ccc(-c2nnc(SCc3ccccc3)n2Cc2ccco2)cc1 [4-(5-(benzylthio)-4-(furan-2-ylmethyl)-4H-1,2,4-triazol-3-yl)phenol] | GSK3-β and GSK3-α and MSK2 |
| Cn1c(SCc2ccccc2)nnc1-c1ccc(O)cc1 [4-(5-(benzylthio)-4-methyl-4H-1,2,4-triazol-3-yl)phenol] | GSK3-β and GSK3-α and MSK1 |
| Cn1c(SCc2ccccc2)nnc1-c1ccncc1 [4-(5-(benzylthio)-4-methyl-4H-1,2,4-triazol-3-yl)pyridine] | AURORA-A |
| c1ccc(CSc2nnc(-c3ccncc3)n2-c2ccccc2)cc1 [4-(5-(benzylthio)-4-phenyl-4H-1,2,4-triazol-3-yl)pyridine] | AURORA-A |
| CCSc1nnc(-c2ccncc2)n1CCCOC [4-(5-(ethylthio)-4-(3-methoxypropyl)-4H-1,2,4-triazol-3-yl)pyridine] | AURORA-A |
| CSc1nnc(-c2ccc(O)cc2)n1-c1ccccc1 [4-(5-(methylthio)-4-phenyl-4H-1,2,4-triazol-3-yl)phenol] | GSK3-β; also recorded: GSK3-α; also recorded: CDK2-cyclinA |

Reference: patent publication US20050288347A1, “Certain triazole-based compounds, compositions, and uses thereof” (priority 2004, published 2005)
